Reference: ChEMBL document CHEMBL1136067, “The activity of diguanidino and 'reversed' diamidino 2,5-diarylfurans versus Trypanosoma cruzi and Leishmania donovani” (Bioorg Med Chem Lett, 2003)

Legend:
[1] = system: Leishmania donovani; experiment: Inhibitory activity against Leishmania donovani (amastigote); assay type: functional, organism-based
[2] = system: Leishmania donovani; experiment: Inhibitory activity against Leishmania donovani (macrophage); assay type: functional, organism-based
[3] = system: Nucleic Acid
[4] = Cell toxicity was evaluated; assay type: functional
[5] = system: Nucleic Acid; remark: listed apart in the source
Description: DNA binding affinity measured as an increase in thermal melting of poly(dA.dT)2

[6] = system: Trypanosoma cruzi; experiment: Inhibitory activity against Trypanosoma cruzi; assay type: functional, organism-based

SMILES	IC50 ([1]; read-out: IC50)	IC50 [2]	ΔTm [3]	IC50 [4]	ΔTm [5]	IC50 [6]	IC50 [1]
COc1cc(-c2ccc(-c3ccc(N=C(N)N)c(OC)c3)o2)ccc1N=C(N)N	14.5 µM	> 29 µM	6.2	39.6 µM	15.4	29 µM	
Cc1c(/N=C(\N)c2ccccn2)ccc(-c2ccc(-c3ccc(/N=C(\N)c4ccccn4)c(C)c3C)o2)c1C	1.14 µM	3.6 µM	4.2	60.6 µM	13.8	0.91 µM	
O=C(Cn1ccnc1[N+](=O)[O-])NCc1ccccc1 [BENZNIDAZOLE]						1.27 µM	
CSc1cc(-c2ccc(-c3ccc(N=C(N)N)c(SC)c3)o2)ccc1N=C(N)N	22.6 µM	> 19 µM	2.6	68 µM	12.2	114 µM	
COc1cc(NC(=N)N)ccc1-c1ccc(-c2ccc(NC(=N)N)cc2OC)o1	18.7 µM	5.2 µM	2.8	20 µM	15.2	1.3 µM	
N=C(N)c1ccc(-c2ccc(-c3ccc(C(=N)N)cc3)o2)cc1 [FURAMIDINE]	2.7 µM		11.7	6.4 µM	25	23.3 µM	
N=C(N)Nc1ccc(-c2ccc(-c3ccc(NC(=N)N)cc3C(F)(F)F)o2)c(C(F)(F)F)c1	14.8 µM	> 5.6 µM	0	11.3 µM	5.9	31.2 µM	
Cc1cc(NC(=N)c2ccccn2)ccc1-c1ccc(-c2ccc(NC(=N)c3ccccn3)cc2C)o1	0.38 µM	0.6 µM	8.9	11.3 µM	22.6	0.21 µM	
Cc1cc(NC(=N)N)ccc1-c1ccc(-c2ccc(NC(=N)N)cc2C)o1	3.3 µM	> 6 µM	6.9	14.6 µM	17.8	3.2 µM	
COc1cc(NC(=N)c2ccccn2)ccc1-c1ccc(-c2ccc(NC(=N)c3ccccn3)cc2OC)o1	0.1 µM	0.48 µM	7.8	12.7 µM	19	0.57 µM	
N=C(N)c1ccc(OCCCCCOc2ccc(C(=N)N)cc2)cc1 [PENTAMIDINE]		9.3 µM	4.8	4.2 µM	12.8	7.1 µM	2.6 µM
N=C(N)Nc1ccc(-c2ccc(-c3ccc(N=C(N)N)c(Cl)c3)o2)cc1Cl	> 50 µM	> 6.3 µM	2.6	35.7 µM	12.7	44 µM	
N=C(Nc1ccc(-c2ccc(-c3ccc(NC(=N)c4ccccn4)cc3)o2)cc1)c1ccccn1	0.55 µM	1.45 µM	7.5	17.1 µM	19.6	9.6 µM	
N=C(Nc1ccc(-c2ccc(-c3ccc(NC(=N)c4ccccn4)c(Cl)c3)o2)cc1Cl)c1ccccn1	0.51 µM		1.5	128 µM	0.6	0.5 µM	
N=C(Nc1ccc(-c2ccc(-c3ccc(NC(=N)c4ccccc4)cc3)o2)cc1)c1ccccc1	> 100 µM	> 8 µM	15	3.8 µM	28	13.7 µM	
N=C(N)Nc1ccc(-c2ccc(-c3ccc(NC(=N)N)cc3Cl)o2)c(Cl)c1	6.2 µM	> 6.8 µM	4.7	14.2 µM	26.1	27 µM	
CCCCCCCCCCCCCCCCOP(=O)([O-])OCC[N+](C)(C)C [MILTEFOSINE]		1 µM					
CC(C)Oc1cc(NC(=N)N)ccc1-c1ccc(-c2ccc(NC(=N)N)cc2OC(C)C)o1	9.65 µM	> 6 µM	1.5	16 µM	12	35 µM	
CSc1cc(-c2ccc(-c3ccc(/N=C(\N)c4ccccn4)c(SC)c3)o2)ccc1/N=C(\N)c1ccccn1	0.35 µM	0.15 µM	0	7.3 µM	1	0.15 µM	
Cc1c(N=C(N)N)ccc(-c2ccc(-c3ccc(N=C(N)N)c(C)c3C)o2)c1C	4.2 µM	> 19 µM	1.3	33.4 µM	3.8	2.7 µM	
N=C(N)Nc1ccc(-c2ccc(-c3ccc(NC(=N)N)cc3)o2)cc1	10.9 µM	> 24 µM	10.8	143 µM	21.6	86 µM	
COc1cc(-c2ccc(-c3ccc(/N=C(\N)c4ccccn4)c(OC)c3)o2)ccc1/N=C(\N)c1ccccn1	0.29 µM	0.16 µM	6.6	7.9 µM	15.2	1 µM	
N=C(Nc1ccc(-c2ccc(-c3ccc(NC(=N)c4ccccn4)cc3Cl)o2)c(Cl)c1)c1ccccn1	0.66 µM	0.13 µM	0	8 µM	5.2	0.49 µM	
CCOc1cc(-c2ccc(-c3ccc(N=C(N)N)c(OCC)c3)o2)ccc1N=C(N)N	11.2 µM	> 40 µM	6.8	74 µM	16.5	152 µM	
